Data: US9682938B2, “Pyrazolone derivatives as nitroxyl donors” (Cardioxyl Pharmaceuticals, Inc., priority 2014, dated 2017)

What was measured:
Format in all cases: in vitro ADME
[1] = In vitro plasma stability, dog plasma; settings: male, pH 7.4, 5 μM, 37° C., sampling 0-360 minutes, read-out: T1/2 Dog
Description: (§1) Certain compounds from Table 1 were tested for their stability in plasma. The assay system comprised plasma from rat, dog or human (at least 3 donors, male, pooled) at pH 7.4, and (ii) an anticoagulant (sodium heparin or sodium citrate). Each test compound (5 μM) was incubated in plasma at 37° C. on a THERMOMIXER® with shaking. Three samples (n=3) were taken at each of seven sampling time points: 0, 10, 30, 60, 90, 180 and 360 minutes. The samples were immediately combined with 3 volumes (i.e., 3 times the volume of plasma) of acetonitrile containing 1% formic acid and an internal standard to terminate the reaction. AB SCIEX API 3000 LC-MS/MS analysis of the test compounds was performed without a standard curve. Plasma half-lives (T1/2) of the test compounds were determined from graphs of the percent remaining values using the peak area response ratio.

[2] = In vitro plasma stability, rat plasma; settings: male, pH 7.4, 5 μM, 37° C., sampling 0-360 minutes, read-out: T1/2 Rat
Description: as §1

[3] = In vitro plasma stability, human plasma; settings: male, pH 7.4, 5 μM, 37° C., sampling 0-360 minutes, read-out: T1/2 Human
Description: as §1

half-life at 5 μM [1] [min]	half-life at 5 μM [2] [min]	half-life at 5 μM [3] [min]	SMILES
84	148	76	CN1N=C(c2ccc(C(=O)N3CCOCC3)cc2)C(C)(NO)C1=O (stereo not drawn) [Compound 81, 4-(Hydroxyamino)-1,4-dimethyl-3-[4-(morpholine-4-carbonyl)phenyl]-4,5-dihydro-1H-pyrazol-5-one]
56	69	46	CN1N=C(c2ccc(S(C)(=O)=O)c(N3CCOCC3)c2)C(C)(NO)C1=O (stereo not drawn) [Compound 82, 4-(Hydroxyamino)-3-[4-methanesulfonyl-3-(morpholin-4-yl)phenyl]-1,4-dimethyl-4,5-dihydro-1H-pyrazol-5-one]
66	89	51	COCCN(C)c1cc(C2=NN(C)C(=O)C2(C)NO)ccc1S(C)(=O)=O (stereo not drawn) [Compound 83, 4-(Hydroxyamino)-3-{4-methanesulfonyl-3-[(2-methoxyethyl)(methyl)amino]phenyl}-1,4-dimethyl-4,5-dihydro-1H-pyrazol-5-one]
86	125	105	CN1N=C(c2ccc(C(=O)N3CCC(F)(F)CC3)cc2)C(C)(NO)C1=O (stereo not drawn) [Compound 85, 3-[4-(4,4-Difluoropiperidine-1-carbonyl)phenyl]-4-(hydroxyamino)-1,4-dimethyl-4,5-dihydro-1H-pyrazol-5-one]
39	61	47	CCS(=O)(=O)c1ccc(C2=NN(C)C(=O)C2(C)NO)cc1 (stereo not drawn) [Compound 86, 3-[4-(Ethanesulfonyl)phenyl]-4-(hydroxyamino)-1,4-dimethyl-4,5-dihydro-1H-pyrazol-5-one]
42	63	47	CN1N=C(c2ccc(S(C)(=O)=O)c(N(C)C)c2)C(C)(NO)C1=O (stereo not drawn) [Compound 87, 3-[3-(Dimethylamino)-4-methanesulfonylphenyl]-4-(hydroxyamino)-1,4-dimethyl-4,5-dihydro-1H-pyrazol-5-one]
42	65	49	CN1CCN(c2cc(C3=NN(C)C(=O)C3(C)NO)ccc2S(C)(=O)=O)CC1 (stereo not drawn) [Compound 88, 4-(Hydroxyamino)-3-[4-methanesulfonyl-3-(4-methylpiperazin-1-yl)phenyl]-1,4-dimethyl-4,5-dihydro-1H-pyrazol-5-one]
29	36	57	CN1N=C(c2ccc(S(=O)(=O)c3ccccc3)cc2)C(C)(NO)C1=O (stereo not drawn) [Compound 89, 3-[4-(Benzenesulfonyl)phenyl]-4-(hydroxyamino)-1,4-dimethyl-4,5-dihydro-1H-pyrazol-5-one]
37	72	49	COCCN(C)S(=O)(=O)c1ccc(C2=NN(C)C(=O)C2(C)NO)cc1 (stereo not drawn) [Compound 90, 4-[4-(Hydroxyamino)-1,4-dimethyl-5-oxo-4,5-dihydro-1H-pyrazol-3-yl]-N-(2-methoxyethyl)-N-methylbenzene-1-sulfonamide]
166	270	169	CN1N=C(c2ccc(C(N)=O)cc2)C(C)(NO)C1=O (stereo not drawn) [Compound 92, 4-[4-(Hydroxyamino)-1,4-dimethyl-5-oxo-4,5-dihydro-1H-pyrazol-3-yl]benzamide]
32	66	35	CN1N=C(c2ccc(S(C)(=O)=O)c(N3CCNCC3)c2)C(C)(NO)C1=O (stereo not drawn) [Compound 93, 4-(Hydroxyamino)-3-[4-methanesulfonyl-3-(piperazin-1-yl)phenyl]-1,4-dimethyl-4,5-dihydro-1H-pyrazol-5-one]
114	191	103	C[C@H](NC(=O)c1ccc(C2=NN(C)C(=O)C2(C)NO)cc1)C(=O)O (stereo partly drawn) [Compound 94]
32	23	25	CN1N=C(c2ccc(S(C)(=O)=O)c(C(F)(F)F)c2)C(C)(NO)C1=O (stereo not drawn) [Compound 97, 4-(Hydroxyamino)-3-[4-methanesulfonyl-3-(trifluoromethyl)phenyl]-1,4-dimethyl-4,5-dihydro-1H-pyrazol-5-one]
16	11	12	CC1=NN(C)C(=O)C1(NO)c1cccc(C)c1 (stereo not drawn) [Compound 98, 4-(Hydroxyamino)-1,3-dimethyl-4-(3-methylphenyl)-4,5-dihydro-1H-pyrazol-5-one]
33	59	28	CN1N=C(c2ccc(S(C)(=O)=O)c(S(C)(=O)=O)c2)C(C)(NO)C1=O (stereo not drawn) [Compound 104, 3-(3,4-Dimethanesulfonylphenyl)-4-(hydroxyamino)-1,4-dimethyl-4,5-dihydro-1H-pyrazol-5-one]
4	4	6	CC1=NN(C)C(=O)C1(NO)/C(C)=N/OCC(C)C (stereo not drawn) [Compound 105, 4-(Hydroxyamino)-1,3-dimethyl-4-[1-[(2-methylpropoxy)imino]ethyl]-4,5-dihydro-1H-pyrazol-5-one]
8	7	6	CCO/N=C(\C)C1(NO)C(=O)N(C)N=C1C (stereo not drawn) [Compound 106, 4-[1-(Ethoxyimino)ethyl]-4-(hydroxyamino)-1,3-dimethyl-4,5-dihydro-1H-pyrazol-5-one]
10	49	18	CO/N=C(\C)C1(NO)C(=O)N(C)N=C1c1ccc(OC)cc1 (stereo not drawn) [Compound 107, 4-(Hydroxyamino)-4-[1-(methoxyimino)ethyl]-3-(4-methoxyphenyl)-1-methyl-4,5-dihydro-1H-pyrazol-5-one]
136	89	61	CN1N=C(c2ccc(Br)cc2)C(C)(NO)C1=O (stereo not drawn) [Compound 108, 3-(4-Bromophenyl)-4-(hydroxyamino)-1,4-dimethyl-4,5-dihydro-1H-pyrazol-5-one]
11	8	10	CN1N=C(c2ccccc2)C(NO)(c2ccccc2)C1=O (stereo not drawn) [Compound 109, 4-(Hydroxyamino)-1-methyl-3,4-diphenyl-4,5-dihydro-1H-pyrazol-5-one]
12	62	11	CCOC1=NN(c2ccccc2)C(=O)C1(NO)/C(C)=N/OC (stereo not drawn) [Compound 110, 3-Ethoxy-4-(hydroxyamino)-4-[1-(methoxyimino)ethyl]-1-phenyl-4,5-dihydro-1H-pyrazol-5-one]
24	23	29	CCOC1=NN(c2ccc(Br)cc2)C(=O)C1(NO)/C(C)=N/OC (stereo not drawn) [Compound 111, 1-(4-Bromophenyl)-3-ethoxy-4-(hydroxyamino)-4-[1-(methoxyimino)ethyl]-4,5-dihydro-1H-pyrazol-5-one]
42	49	25	CN1N=C(c2ccc(S(=O)(=O)N3CCC(F)(F)CC3)cc2)C(C)(NO)C1=O (stereo not drawn) [Compound 114, 3-{4-[(4,4-Difluoropiperidin-1-yl)sulfonyl]phenyl}-4-(hydroxyamino)-1,4-dimethyl-4,5-dihydro-1H-pyrazol-5-one]
27	32	14	C/C(=N\OCc1ccccc1)C1(NO)C(=O)N(C)N=C1C(C)(C)C (stereo not drawn) [Compound 115, 4-[1-[(Benzyloxy)imino]ethyl]-3-tert-butyl-4-(hydroxyamino)-1-methyl-4,5-dihydro-1H-pyrazol-5-one]
18	48	9	CO/N=C(\C)C1(NO)C(=O)N(c2ccccc2)N=C1OC (stereo not drawn) [Compound 116, 4-(Hydroxyamino)-3-methoxy-4-[1-(methoxyimino)ethyl]-1-phenyl-4,5-dihydro-1H-pyrazol-5-one]
24	22	5	C/C(=N\Oc1ccc(Br)cc1)C1(NO)C(=O)N(C)N=C1C(C)(C)C (stereo not drawn) [Compound 118, 4-[1-[(4-Bromophenoxy)imino]ethyl]-3-tert-butyl-4-(hydroxyamino)-1-methyl-4,5-dihydro-1H-pyrazol-5-one]
118	91	12	C/C(=N\Oc1ccccc1)C1(NO)C(=O)N(C)N=C1C(C)(C)C (stereo not drawn) [Compound 119, 3-tert-Butyl-4-(hydroxyamino)-1-methyl-4-[1-(phenoxyimino)ethyl]-4,5-dihydro-1H-pyrazol-5-one]
31	56	32	CC(C)S(=N)(=O)c1ccc(C2=NN(C)C(=O)C2(C)NO)cc1 (stereo not drawn) [Compound 120, 4-(Hydroxyamino)-3-{4-[imino(oxo)propan-2-yl-λ^6-sulfanyl]phenyl}-1,4-dimethyl-4,5-dihydro-1H-pyrazol-5-one]

SMILES	half-life at 5 μM [1] [min]	half-life at 5 μM [2] [min]	half-life at 5 μM [3] [min]
C/C(=N\OC(C)(C)C)C1(NO)C(=O)N(C)N=C1C(C)(C)C (stereo not drawn) [Compound 117, 4-[1-[(tert-Butoxy)imino]ethyl]-3-tert-butyl-4-(hydroxyamino)-1-methyl-4,5-dihydro-1H-pyrazol-5-one]	34	36	16
